This note sets out measurements from patent publication US4243678A, “Acylhydrocarbylaminoalkanoic acids, compositions and uses” (Byk Gulden Lomberg Chemische Fabrik GmbH, priority 1977, dated 1981).

Where only a bound is given, the exact number is not on record here.

Series [1] can be described thus: Influence on pancreatic secretion of the narcotized rat. In kind it is in vivo, rat (male Sprague-Dawley). As to conditions: in vivo; LD50 mouse i.p. / ED50 rat i.d.; Table VII; read-out: TQ [LD50/ED50], pancreatic secretion.
A further series concerns pancreatic secretion. The description is as above. In kind it is in vivo, rat (male Sprague-Dawley). As to conditions: 0.5 h; narcotized rat, i.d.; liquid volume, 30 min fraction; Table VII; read-out: ED50 pancreatic secretion (dose which brings about an increase in pancreatic secretion of a maximum of 50%).
Series [2] can be described thus: Antihepatotoxic effect: duration of hexobarbital sleep of the rat after liver damage by CCl4. As to conditions: rat, in vivo. On the procedure:
(§1) The compounds to be tested are administered 1 hour prior to the administration of CCl4 orally in a liquid volume of 10 ml/kg.
(§2) The antihepatotoxic effect of the compounds to be tested (sodium salts in aqueous solution) is determined by the reduction of the prolongation of sleeping period caused by the CCl4 liver cell damage in the groups treated, as compared with the prolongation of the sleeping period of the CCl4 control group (=100%). […]

The subject of a further series is liver damage by CCl4. The series is described as above. As to conditions: Rattus norvegicus, po. On the procedure: as §1, §2
Series [3] is described as follows: Determination of toxicity (lethal action on the mouse after intraperitoneal application). In kind it is in vivo. As to conditions: in vivo, ip, mouse. On the procedure: (§3) The toxicity investigations are carried out on female NMRI mice (body weight 22 to 26 g). The animals (5 animals per dose) are given food and water ad lib. Different doses of the substances are administered intraperitoneally. The duration of observation is 14 days. The LD50, i.e. the dose at which 50% of the animals die, is determined graphically from the dose/effect curve.

For a further series, the system named is mouse. Described as above. In kind it is in vivo. As to conditions: 20160 min. On the procedure: as §3
A short description of series [4]: Antiulcerogenic (stomach-protective) action, pylorus ligature and acetylsalicylic acid. In kind it is in vivo, rat (female). As to conditions: in vivo; LD50 mouse i.p. / ED50 rat i.d.; Table IV; read-out: TQ (LD50/ED50), antiulcerogenic action. The gist of the method:
(§4)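 Fasted female rats (180-200 g) given pylorus ligature plus oral acetylsalicylic acid, 100 mg/10 ml/kg. Compounds given intraduodenally right after ligature. Stomachs examined at 4 h under 10× magnification; ulcer index = severity score × ulcer number, with effect expressed as % reduction of mean index against control.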

A further series has as its system stomach ulcer. The series is described as above. In kind it is in vivo, rat (female). The note with it: 4 h; rat, intraduodenally; Table IV; read-out: ED50 antiulcerogenic action (dose which reduces the mean ulcer index by 50%). The gist of the method: as §4
A short description of series [5]: Influence on bile secretion (choleresis) of the narcotized rat. In kind it is in vivo, rat (male Sprague-Dawley). As to conditions: in vivo; LD50 mouse i.p. / ED50 rat i.d.; Table II; read-out: TQ (LD50/ED50), bile secretion. An excerpt: (§5) Male Sprague-Dawley rats (body weight from 250 to 300 g) are narcotized with 1.2 g/kg urethane i.m. Then the abdominal cavity is opened medially, the bile duct is ligatured shortly above the place where it leads into the duodenum and also near to the hepatic duct, and both sections are catheterized towards the liver.
(§6) As in the rat all the pancreatic ducts lead out into the central section of the bile duct; it is possible in this way to discharge the pancreatic secretion separately from the distal (ligatured) section and the bile separately from the proximal section of the bile duct.
(§7) The quantities of pancreatic juice and bile juice obtained are measured at intervals of 30 minutes over a period from 2 hours before to 3 hours after the intraduodenal (V. jugularis externa) administration of the compounds to be tested (quantity of liquid administered 5 ml/kg).
(§8) The body temperature of the animals is maintained at 36° to 38° C. by means of electric blankets and radiation; the temperature is monitored rectally.
(§9) The liquid volumes of the 30-minute fractions after the administration of the substance are related in each case to the quantity of bile or pancreatic juice secreted prior to the application of the substance (=100%, mean of the last two measurements). The maximum percentage increase in the pancreatic or bile secretion is represented in dependence upon dose, and from this the ED50 is determined by interpolation.

The test system of another series is bile secretion. The description is as above. In kind it is in vivo, rat (male Sprague-Dawley). As to conditions: 0.5 h; narcotized rat, i.d.; liquid volume, 30 min fraction; Table II; read-out: ED50 bile secretion (dose which brings about an increase in the bile secretion by a maximum of 50%).
Excerpt: as §5, §6, §7, §8, §9

Consider `COc1ccc(Cl)cc1C(=O)N(CCCCCC(=O)O)c1ccccc1-c1ccccc1` [Serial No. 30, 6-[5-chloro-2-methoxy-N-(biphenyl-2-yl)benzamido]caproic acid], for which the selectivity ratio in series [1] is more than 200; in series [2] (TQ LD50/ED25, antihepatotoxic effect, LD50 mouse i.p. / ED25 rat p.o., Table V), more than 20; in [4], more than 20. In addition, the ED50 with pancreatic secretion was less than 1 mg/kg; in the series with stomach ulcer, 10 mg/kg. Further, the ED25 in the series on liver damage by CCl4 (read-out: ED25 antihepatotoxic effect (shortens hexobarbital narcosis by 25%)) was 10 mg/kg. Moreover, the LD50 at 336 h in series [3] (Table IV) was more than 200 mg/kg. For the same molecule, the LD50 in the series with mouse (mouse i.p., Table V) was more than 200 mg/kg; with mouse (mouse i.p., Table VII) it was more than 200 mg/kg.

Take `C#CC(C)(C)N(CCCC(=O)O)C(=O)c1ccc(Cl)cc1` [Serial No. 3, N-(p-chloro)benzoyl-4-[(2-methyl-3-butyn-2-yl)amino]butyric acid]: the selectivity ratio in series [5] is more than 40; in series [2] (TQ (LD50/ED50), antihepatotoxic effect, LD50 mouse i.p. / ED50 rat p.o., Table III), more than 10. Besides, the ED50 turned out to be 25 mg/kg in the series on bile secretion and 100 mg/kg in the series with liver damage by CCl4 (read-out: ED50 antihepatotoxic effect (dose which shortens the hexobarbital narcosis by 50%)). The median lethal dose (LD50) at 336 h in [3] (Table II) is more than 1000 mg/kg. Moreover, the LD50 in the series with mouse (mouse, i.p., Table III) is reported as more than 1000 mg/kg.

What is called ED50 is the dose at which the effect has come halfway, by size or by number of responders. In general, LD50 refers to the dose at which mortality reaches 50%. A higher LD50 goes with a less toxic substance.
